Biological target: Prothrombin (Homo sapiens, UniProt P00734)
Experiment: Inhibition constant was evaluated for inhibitory activity against the blood coagulant thrombin

| Compound | Ki [µM] |
| --- | --- |
| CN(C)C(=O)[C@H](Cc1ccc(CN)cc1)NS(=O)(=O)c1ccc2ccccc2c1 | 3.06 |
| NCc1ccc(C[C@H](NS(=O)(=O)c2ccc3ccccc3c2)C(=O)NCc2ccccc2)cc1 | 97.2 |
| CN(C(=O)[C@H](Cc1ccc(CN)cc1)NS(=O)(=O)c1ccc2ccccc2c1)C1CCCC1 | 0.05 |
| CCCc1ccc(S(=O)(=O)N[C@@H](Cc2ccc(CN)cc2)C(=O)N(C)C2CCCC2)cc1 | 0.01 |
| CC(C)N(C)C(=O)[C@H](Cc1ccc(CN)cc1)NS(=O)(=O)c1ccc2ccccc2c1 | 0.6 |

More lines, now with the values ahead:

| Ki [µM] | Compound |
| --- | --- |
| 15.6 | NCc1ccc(C[C@H](NS(=O)(=O)c2ccc3ccccc3c2)C(=O)N2CCC(O)CC2)cc1 |
| 31.7 | CC(C)NC(=O)[C@H](Cc1ccc(CN)cc1)NS(=O)(=O)c1ccc2ccccc2c1 |
| 0.2 | NCc1ccc(C[C@H](NS(=O)(=O)c2ccc3ccccc3c2)C(=O)N2CCCC2)cc1 |
